Experimental data taken from patent US20230079819A1, “COMPOUNDS AND USES THEREOF” (Foghorn Therapeutics Inc., priority 2019, published 2023).

Key:
BRM = target: T1, BRM (Homo sapiens, UniProt P51531); experiment: ATPase catalytic activity of BRM, ADP-Glo in vitro biochemical assay; conditions: ATPase catalytic activity, 30 nM BRM, 400 μM ATP, read-out: BRM IP50
T1 construct: made in house; host or cells: High Five insect cells

BRG-1 = target: T2, BRG-1 (Homo sapiens, UniProt P51532); experiment: ATPase catalytic activity of BRG-1, ADP-Glo in vitro biochemical assay; conditions: ATPase catalytic activity, 30 nM BRG-1, 400 μM ATP, read-out: BRG1 IP50
T2 construct: made in house; host or cells: High Five insect cells
T2 sequence (P51532 whole entry): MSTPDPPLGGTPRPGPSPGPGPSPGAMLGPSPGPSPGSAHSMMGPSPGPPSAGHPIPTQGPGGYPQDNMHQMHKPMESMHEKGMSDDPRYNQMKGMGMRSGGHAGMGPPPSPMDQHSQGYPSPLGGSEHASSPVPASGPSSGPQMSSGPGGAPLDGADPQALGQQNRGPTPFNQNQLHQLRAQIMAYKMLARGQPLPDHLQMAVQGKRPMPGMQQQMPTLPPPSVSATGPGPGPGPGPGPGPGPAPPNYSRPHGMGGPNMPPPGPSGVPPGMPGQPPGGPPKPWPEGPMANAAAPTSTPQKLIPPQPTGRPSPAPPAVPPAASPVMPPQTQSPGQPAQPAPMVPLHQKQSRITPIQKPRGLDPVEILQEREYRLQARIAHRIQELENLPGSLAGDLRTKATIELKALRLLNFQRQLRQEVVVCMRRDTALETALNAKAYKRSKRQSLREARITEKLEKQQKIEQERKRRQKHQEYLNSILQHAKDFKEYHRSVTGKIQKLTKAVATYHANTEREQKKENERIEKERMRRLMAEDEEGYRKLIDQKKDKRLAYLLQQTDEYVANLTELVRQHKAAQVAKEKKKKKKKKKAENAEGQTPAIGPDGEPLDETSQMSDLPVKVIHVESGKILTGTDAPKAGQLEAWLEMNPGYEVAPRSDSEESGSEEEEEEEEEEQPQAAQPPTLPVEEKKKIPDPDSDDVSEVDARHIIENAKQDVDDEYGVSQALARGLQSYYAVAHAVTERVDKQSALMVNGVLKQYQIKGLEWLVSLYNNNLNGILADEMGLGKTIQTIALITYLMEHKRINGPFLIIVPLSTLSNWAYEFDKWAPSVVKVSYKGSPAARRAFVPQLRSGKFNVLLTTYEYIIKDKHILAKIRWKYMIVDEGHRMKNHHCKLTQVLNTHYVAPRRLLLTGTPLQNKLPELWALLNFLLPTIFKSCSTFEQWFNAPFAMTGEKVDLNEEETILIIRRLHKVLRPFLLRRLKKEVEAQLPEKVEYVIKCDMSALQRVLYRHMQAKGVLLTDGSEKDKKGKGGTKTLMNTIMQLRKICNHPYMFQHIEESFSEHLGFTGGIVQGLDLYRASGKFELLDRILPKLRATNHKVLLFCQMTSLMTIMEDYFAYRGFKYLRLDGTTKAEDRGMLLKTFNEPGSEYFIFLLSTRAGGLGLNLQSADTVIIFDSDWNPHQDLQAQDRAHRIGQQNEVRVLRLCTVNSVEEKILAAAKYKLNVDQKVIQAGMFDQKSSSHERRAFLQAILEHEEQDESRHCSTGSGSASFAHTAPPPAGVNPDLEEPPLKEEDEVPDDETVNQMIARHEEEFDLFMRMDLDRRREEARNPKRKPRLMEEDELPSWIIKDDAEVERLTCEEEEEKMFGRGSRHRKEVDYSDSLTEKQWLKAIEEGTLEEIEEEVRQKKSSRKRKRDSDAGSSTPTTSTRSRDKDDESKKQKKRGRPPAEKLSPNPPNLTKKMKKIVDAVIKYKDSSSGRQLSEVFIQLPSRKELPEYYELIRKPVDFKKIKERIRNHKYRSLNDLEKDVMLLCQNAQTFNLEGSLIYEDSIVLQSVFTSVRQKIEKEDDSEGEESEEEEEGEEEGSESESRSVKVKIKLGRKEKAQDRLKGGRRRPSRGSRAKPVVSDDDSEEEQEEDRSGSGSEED

T1 sequence (P51531 whole entry): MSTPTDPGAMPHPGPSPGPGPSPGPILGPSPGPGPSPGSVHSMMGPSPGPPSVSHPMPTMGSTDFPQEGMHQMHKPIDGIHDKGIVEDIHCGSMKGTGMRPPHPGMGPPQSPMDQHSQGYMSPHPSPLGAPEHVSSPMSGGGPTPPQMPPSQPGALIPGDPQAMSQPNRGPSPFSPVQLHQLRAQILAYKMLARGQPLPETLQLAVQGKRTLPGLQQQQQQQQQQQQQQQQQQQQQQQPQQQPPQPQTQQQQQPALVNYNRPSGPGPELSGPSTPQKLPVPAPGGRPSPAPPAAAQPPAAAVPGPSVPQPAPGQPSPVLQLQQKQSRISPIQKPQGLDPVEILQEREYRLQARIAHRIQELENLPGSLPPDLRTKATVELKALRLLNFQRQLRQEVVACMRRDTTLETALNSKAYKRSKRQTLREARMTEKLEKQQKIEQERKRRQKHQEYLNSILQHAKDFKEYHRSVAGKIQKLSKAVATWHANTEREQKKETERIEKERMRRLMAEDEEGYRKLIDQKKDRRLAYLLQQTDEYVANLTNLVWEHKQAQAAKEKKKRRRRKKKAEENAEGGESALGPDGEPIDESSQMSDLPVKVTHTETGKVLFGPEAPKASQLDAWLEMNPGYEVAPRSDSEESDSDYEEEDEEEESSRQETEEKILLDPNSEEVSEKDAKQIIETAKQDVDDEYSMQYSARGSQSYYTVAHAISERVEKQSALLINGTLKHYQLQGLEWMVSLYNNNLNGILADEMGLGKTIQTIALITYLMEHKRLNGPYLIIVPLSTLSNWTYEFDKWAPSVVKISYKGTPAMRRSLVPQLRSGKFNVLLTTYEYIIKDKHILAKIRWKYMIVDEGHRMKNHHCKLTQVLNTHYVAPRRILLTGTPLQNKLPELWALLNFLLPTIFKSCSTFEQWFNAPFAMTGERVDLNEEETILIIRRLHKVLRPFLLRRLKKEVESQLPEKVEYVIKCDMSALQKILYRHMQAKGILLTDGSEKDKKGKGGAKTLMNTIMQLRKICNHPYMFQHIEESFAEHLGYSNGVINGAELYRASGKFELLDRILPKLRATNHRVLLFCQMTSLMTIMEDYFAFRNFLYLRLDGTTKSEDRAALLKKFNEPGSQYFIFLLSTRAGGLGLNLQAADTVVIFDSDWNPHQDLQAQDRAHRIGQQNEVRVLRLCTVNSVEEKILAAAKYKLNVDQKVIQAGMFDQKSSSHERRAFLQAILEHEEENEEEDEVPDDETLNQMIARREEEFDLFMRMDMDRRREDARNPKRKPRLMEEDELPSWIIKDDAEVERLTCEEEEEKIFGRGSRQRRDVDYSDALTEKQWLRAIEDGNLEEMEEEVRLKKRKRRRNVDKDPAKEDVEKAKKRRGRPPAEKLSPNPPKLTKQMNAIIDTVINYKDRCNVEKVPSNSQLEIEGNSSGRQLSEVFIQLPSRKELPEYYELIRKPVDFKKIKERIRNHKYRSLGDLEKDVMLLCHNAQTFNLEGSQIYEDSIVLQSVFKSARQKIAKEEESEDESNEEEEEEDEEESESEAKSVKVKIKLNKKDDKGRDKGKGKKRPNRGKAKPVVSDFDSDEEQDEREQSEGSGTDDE

SMILES | IC50 (BRM) [nM] | IC50 (BRG-1) [nM]
CC(C)(C)n1ccc(C(=O)NCC(=O)Nc2nc(-c3cccc(N4CC(N5CCS(=O)(=O)CC5)C4)n3)cs2)c1 [Compound 629] | > 100 | > 100
Cc1nnc(C2CCN(c3cccc(-c4csc(NC(=O)CNC(=O)c5ccn(C(C)(C)C)c5)n4)n3)CC2)o1 [Compound 630] | > 10 | > 10
CC(C)(C)n1ccc(C(=O)NCC(=O)Nc2nc(-c3cccc(N4CCC5(CCCCO5)C4)n3)cs2)c1 (stereo not drawn) [Compound 631] | > 10 | > 10
CC(C)(C)n1ccc(C(=O)NCC(=O)Nc2nc(-c3cccc(N4CCc5ccncc5C4)n3)cs2)c1 [Compound 632] | > 10 | > 10
CC(C)(C)n1ccc(C(=O)NCC(=O)Nc2nc(-c3cccc(N4CCC(OC(F)F)C4)n3)cs2)c1 (stereo not drawn) [Compound 633] | > 10 | > 10
CC(C)(C)n1ccc(C(=O)NCC(=O)Nc2nc(-c3cccc(N4CCC5(CC5)C4)n3)cs2)c1 [Compound 634] | > 10 | > 10
CC(C)(C)n1ccc(C(=O)NCC(=O)Nc2nc(-c3cccc(N4CC[C@@H](N5CCOCC5)[C@@H](F)C4)n3)cs2)c1 [Compound 635] | > 100 | > 100
CC(C)(C)n1ccc(C(=O)NCC(=O)Nc2nc(-c3cccc(N4CCCC(N5CCCC5)C4)n3)cs2)c1 (stereo not drawn) [Compound 636] | > 10 | > 10
Cn1cc2c(n1)CCN(c1cccc(-c3csc(NC(=O)CNC(=O)c4ccn(C(C)(C)C)c4)n3)n1)C2 [Compound 637] | > 10 | > 10
CC(C)(C)n1ccc(C(=O)NCC(=O)Nc2nc(-c3cccc(N4CCN5CCOCC5C4)n3)cs2)c1 (stereo not drawn) [Compound 638] | > 100 | > 100
CCC(=O)N1CCN(c2cccc(-c3csc(NC(=O)CNC(=O)c4ccn(C(C)(C)C)c4)n3)n2)CC1 [Compound 639] | > 10 | > 10
CN(C)C(=O)N1CCN(c2cccc(-c3csc(NC(=O)CNC(=O)c4ccn(C(C)(C)C)c4)n3)n2)CC1 [Compound 640] | > 10 | > 100
CN1C(=O)CC[C@H]2CN(c3cccc(-c4csc(NC(=O)CNC(=O)c5ccn(C(C)(C)C)c5)n4)n3)CC[C@H]21 [Compound 641] | > 100 | > 100
CCOC1CCN(c2cccc(-c3csc(NC(=O)CNC(=O)c4ccn(C(C)(C)C)c4)n3)n2)CC1 [Compound 642] | > 100 | > 100
CN1C(=O)CC[C@@H]2CN(c3cccc(-c4csc(NC(=O)CNC(=O)c5ccn(C(C)(C)C)c5)n4)n3)CC[C@H]21 [Compound 643] | > 10 | > 10
CC(C)(C)n1ccc(C(=O)NCC(=O)Nc2nc(-c3cccc(N4CC5(COC5)C4)n3)cs2)c1 [Compound 644] | > 100 | > 100
CC(C)(C)n1ccc(C(=O)NCC(=O)Nc2nc(-c3cccc(N4CCCC5(CCOCC5)C4)n3)cs2)c1 [Compound 645] | > 10 | > 10
CC(C)(C)n1ccc(C(=O)NCC(=O)Nc2nc(-c3cccc(N4CC(F)(F)C4)n3)cs2)c1 [Compound 646] | > 100 | > 100
CC(C)(C)n1ccc(C(=O)NCC(=O)Nc2nc(-c3cccc(N4CC[C@@H](F)C4)n3)cs2)c1 [Compound 647] | > 10 | > 10

SMILES | IC50 (BRM) [nM] | IC50 (BRG-1) [nM]
C[C@@]1(n2ccc(C(=O)NCC(=O)Nc3nc(-c4cccc(N5CCC5)c4)cs3)c2)CC1(F)F [Compound 651] | > 100 | > 1000
C[C@]1(n2ccc(C(=O)NCC(=O)Nc3nc(-c4cccc(N5CCC5)c4)cs3)c2)CC1(F)F [Compound 652] | > 10 | > 10
CC(C)(C)n1ccc(C(=O)NCC(=O)Nc2nc(-c3cccc(N4CCCC5(COC5)C4)n3)cs2)c1 [Compound 653] | > 10 | > 10
C[C@H]1CCN(c2cccc(-c3csc(NC(=O)CNC(=O)c4ccn(C(C)(C)C)c4)n3)n2)C1 [Compound 654] | > 10 | > 10
Cc1nnc2n1CCN(c1cccc(-c3csc(NC(=O)CNC(=O)c4ccn(C(C)(C)C)c4)n3)n1)C2 [Compound 655] | > 100 | > 100
CC(C)(C)n1ccc(C(=O)NCC(=O)Nc2nc(-c3cccc(N4CCC(S(C)(=O)=O)CC4)n3)cs2)c1 [Compound 656] | > 100 | > 100
CC(C)(C)n1ccc(C(=O)NCC(=O)Nc2nc(-c3cccc(N4CCn5ccnc5C4)n3)cs2)c1 [Compound 657] | > 10 | > 100
CN1CCc2cc(-c3csc(NC(=O)CNC(=O)c4ccn(S(C)(=O)=O)c4)n3)ccc21 [Compound 658] | > 10 | > 10
CC(C)(C)n1ccc(C(=O)NCC(=O)Nc2nc(-c3cccc(N4CC[C@H]5OCCC[C@@H]5C4)n3)cs2)c1 [Compound 659] | > 10 | > 100
CC(C)(C)n1ccc(C(=O)NCC(=O)Nc2nc(-c3cccc(N4CC5CN(c6ccncc6)CC5C4)n3)cs2)c1 (stereo not drawn) [Compound 660] | > 100 | > 100
CC(C)(C)n1ccc(C(=O)NCC(=O)Nc2nc(-c3cccc(N4C[C@@H]5OCC(F)(F)[C@@H]5C4)n3)cs2)c1 [Compound 661] | > 100 | > 100
CC(C)(C)n1ccc(C(=O)NCC(=O)Nc2nc(-c3cccc(N4CC[C@H]5COC[C@@H]5C4)n3)cs2)c1 [Compound 662] | < 10 | < 10
CC(C)(C)n1ccc(C(=O)NCC(=O)Nc2nc(-c3cccc(N4C[C@@H](F)[C@@H](F)C4)n3)cs2)c1 [Compound 664] | > 10 | > 100
CC(C)(C)n1ccc(C(=O)NCC(=O)Nc2nc(-c3cccc(N4CCN(S(C)(=O)=O)CC4)n3)cs2)c1 [Compound 665] | > 100 | > 100
CC(C)(C)n1ccc(C(=O)NCC(=O)Nc2nc(-c3cccc(N4CCC(S(C)(=O)=O)C4)n3)cs2)c1 (stereo not drawn) [Compound 667] | > 10 | > 100
CC(C)(C)n1ccc(C(=O)NCC(=O)Nc2nc(-c3cccc(N4CCCC5(CCO5)C4)n3)cs2)c1 (stereo not drawn) [Compound 668] | > 10 | > 10
CC(C)(C)n1ccc(C(=O)NCC(=O)Nc2nc(-c3cccc(N4CCCC5(CCCO5)C4)n3)cs2)c1 (stereo not drawn) [Compound 669] | > 100 | > 100
CN(C)[C@@H]1CCN(c2cccc(-c3csc(NC(=O)CNC(=O)c4ccn(C(C)(C)C)c4)n3)n2)C1 [Compound 670] | > 10 | > 100
CC(C)(C)n1ccc(C(=O)NCC(=O)Nc2nc(-c3cccc(N4CCC5(CCOC5)C4)n3)cs2)c1 (stereo not drawn) [Compound 671] | > 10 | > 100

SMILES | IC50 (BRM) [nM] | IC50 (BRG-1) [nM]
CC(C)(C)n1ccc(C(=O)NCC(=O)Nc2nc(-c3cccc(N4CCC(C#N)C4)n3)cs2)c1 (stereo not drawn) [Compound 672] | > 10 | > 10
C[C@@H]1CCN(c2cccc(-c3csc(NC(=O)CNC(=O)c4ccn(C(C)(C)C)c4)n3)n2)C1 [Compound 673] | > 10 | > 10
CC(C)(C)n1ccc(C(=O)NCC(=O)Nc2nc(-c3cccc(N4C[C@H]5COC[C@H]5C4)n3)cs2)c1 [Compound 674] | > 10 | > 10
CC(C)(C)n1ccc(C(=O)NCC(=O)Nc2nc(-c3cccc(N4CCC(F)C4)n3)cs2)c1 (stereo not drawn) [Compound 675] | > 10 | > 10
CC(C)(C)n1ccc(C(=O)NCC(=O)Nc2nc(-c3cccc(N4CCC5OCCC5C4)n3)cs2)c1 (stereo not drawn) [Compound 676] | > 10 | > 10
CC(C)(C)n1ccc(C(=O)NCC(=O)Nc2nc(-c3cccc(N4C[C@@H](F)[C@H](F)C4)n3)cs2)c1 [Compound 677] | > 100 | > 100
Cc1cc(N2CCN(c3cccc(-c4csc(NC(=O)CNC(=O)c5ccn(C(C)(C)C)c5)n4)n3)CC2)ccn1 [Compound 678] | > 100 | > 100
CC(C)(C)n1ccc(C(=O)NCC(=O)Nc2nc(-c3cccc(N4CCC(F)(F)C4)n3)cs2)c1 [Compound 679] | > 10 | > 10
CN(C)C1CCCN(c2cccc(-c3csc(NC(=O)CNC(=O)c4ccn(C(C)(C)C)c4)n3)n2)C1 (stereo not drawn) [Compound 680] | > 10 | > 100
CC(C)(C)n1ccc(C(=O)NCC(=O)Nc2nc(-c3cccc(N4CCc5cnccc5C4)n3)cs2)c1 [Compound 681] | < 10 | > 10
CC(C)(C)n1ccc(C(=O)NCC(=O)Nc2nc(-c3cccc(N4CCC(n5cncn5)CC4)n3)cs2)c1 [Compound 682] | > 100 | > 100
CS(=O)(=O)n1ccc(C(=O)NCC(=O)Nc2nc(-c3cccc(N4CC[C@@H](C(F)F)C4)n3)cs2)c1 [Compound 683] | > 10 | > 10
COCC1CN(c2cccc(-c3csc(NC(=O)CNC(=O)c4ccn(C(C)(C)C)c4)n3)n2)CCO1 (stereo not drawn) [Compound 684] | > 10 | > 10
C[C@@H]1CN(c2cncc(-c3csc(NC(=O)CNC(=O)c4ccn(C(C)(C)C)c4)n3)c2)C[C@H](C)O1 [Compound 685] | > 10 | > 100
C[C@@H]1CN(c2cncc(-c3csc(NC(=O)CNC(=O)c4ccn(S(C)(=O)=O)c4)n3)c2)C[C@H](C)O1 [Compound 686] | > 10 | > 10
CC(C)(C)n1ccc(C(=O)NCC(=O)Nc2nc(-c3cccc(N4CC(F)C4)n3)cs2)c1 [Compound 687] | > 10 | > 100
COC[C@H](NC(=O)c1ccn(S(C)(=O)=O)c1)C(=O)Nc1nc(-c2ccc3c(c2)CCO3)cs1 [Compound 688] | > 10 | > 10
CC(C)(C)n1ccc(C(=O)NCC(=O)Nc2nc(-c3cccc(N4C[C@@H]5[C@@H](CF)[C@@H]5C4)n3)cs2)c1 [Compound 689] | > 100 | > 100
CC(C)(C)n1ccc(C(=O)NCC(=O)Nc2nc(-c3cccc(N4CC[C@H](F)C4)n3)cs2)c1 [Compound 690] | > 10 | > 100
